These are literature values, as cited in patent publication US20090099154A1, “Pharmaceutical Sustained Release Compositions and Processes Thereof” (PANACEA BIOTEC LTD., priority 2005, published 2009).

One data set relates to HSV-2-infected cells. Conditions: HSV-2-infected cells cultured in vitro.
Another data set relates to HSV-1-infected cells. As to conditions: HSV-1-infected cells cultured in vitro.
For the next data set, the system named is VZV-infected cells. Conditions: VZV-infected cells cultured in vitro.

Turning to Penciclovir triphosphate, the intracellular half-life in the data set with HSV-2-infected cells was 20 h; with HSV-1-infected cells, 10 h; in the data set on VZV-infected cells, 7 h.
